# The source made the active and inactive calls. How the calls were made is not given here.
# Target: Glycogen synthase kinase-3 beta splice variant X1 (Bos taurus) (UniProt A0A059UE90)
# Experiment: (§1) Inhibition of bovine cerebral TPK1 assessed as reduction in P-GS1 phosphorylation using [32gammaP]ATP incubated for 2 hrs by liquid scintillation counting method
row,SMILES,inhibition
1,Cn1c(N2CCO[C@@H](c3ccc(C(C)(C)O)cc3)C2)nc(-c2ccncc2F)cc1=O,Active
2,CCOC(=O)Nc1ccc([C@H]2CN(c3nc(-c4ccncc4F)cc(=O)n3C)CCO2)cc1,Active
3,COc1ccc(C#N)cc1[C@H]1CN(c2nc(-c3ccncc3F)cc(=O)n2C)CCO1,Active
4,Cn1c(N2CCNC(c3ccc(N4CCNCC4)cc3)C2)nc(-c2ccncc2F)cc1=O (stereo not drawn),Active
5,C[C@@H]1CN(c2ccc([C@H]3CN(c4nc(-c5ccncc5F)cc(=O)n4C)CCO3)cc2)C[C@H](C)O1,Active
6,CC(=O)Nc1ccc([C@H]2CN(c3nc(-c4ccncc4F)cc(=O)n3C)CCO2)cc1,Active
7,CC(=O)N(c1ccc([C@H]2CN(c3nc(-c4ccncc4F)cc(=O)n3C)CCO2)cc1)C1CCCCC1,Active
8,COc1ccc(C#N)cc1[C@H]1CN(c2nc(-c3ccncc3F)c(F)c(=O)n2C)CCO1,Active
9,Cn1c(N2CCO[C@@H](c3ccc(N4CC(O)C4)cc3)C2)nc(-c2ccncc2F)cc1=O,Active
10,Cn1c(N2CCO[C@@H](c3ccc(C(=O)NCCO)cc3)C2)nc(-c2ccncc2F)cc1=O,Active
11,CN(C)C1CCN(c2ccc([C@H]3CN(c4nc(-c5ccncc5F)cc(=O)n4C)CCO3)cc2)CC1,Active
12,CN1CCN(c2ccc([C@H]3CN(c4nc(-c5ccncc5F)cc(=O)n4C)CCO3)cc2)CC1,Active
13,CCCCOc1ccc(-c2ccc([C@H]3CN(c4nc(-c5ccncc5F)cc(=O)n4C)CCN3)cc2)cc1,Active
14,Cn1c(N2CCO[C@@H](c3ccc(N4CC[C@@H](O)C4)cc3)C2)nc(-c2ccncc2F)cc1=O,Active
15,Cn1c(N2CCO[C@@H](c3ccc(NC(=O)C4(C)CC4)cc3)C2)nc(-c2ccncc2F)cc1=O,Active
16,Cn1c(N2CCO[C@@H](c3ccc(C(=O)N4CCCCC4)cc3)C2)nc(-c2ccncc2F)cc1=O,Active
17,CCN(CC)c1ccc([C@H]2CN(c3nc(-c4ccncc4F)cc(=O)n3C)CCO2)cc1,Active
18,CC(O)c1ccc([C@H]2CN(c3nc(-c4ccncc4F)cc(=O)n3C)CCO2)cc1 (stereo partly drawn),Active
19,Cn1c(N2CCO[C@@H](c3ccc(N(CCO)C4CCCCC4)cc3)C2)nc(-c2ccncc2F)cc1=O,Active
20,Cn1c(N2CCO[C@@H](c3ccc(Nc4ccncc4)cc3)C2)nc(-c2ccncc2F)cc1=O,Active
21,CC(C)Oc1ccc([C@H]2CN(c3nc(-c4ccncc4F)cc(=O)n3C)CCO2)cc1,Active
22,CCN(c1ccc([C@H]2CN(c3nc(-c4ccncc4F)cc(=O)n3C)CCO2)cc1)C1CCCCC1,Active

row,SMILES,inhibition
1,CN(C)S(=O)(=O)c1ccc([C@H]2CN(c3nc(-c4ccncc4F)cc(=O)n3C)CCO2)cc1,Active
2,Cn1c(N2CCO[C@@H](c3ccc(NC(=O)c4ccccc4)cc3)C2)nc(-c2ccncc2F)cc1=O,Active
3,Cn1c(N2CCO[C@@H](c3ccc(N4CC[C@H](N5CCCCC5)C4)cc3)C2)nc(-c2ccncc2F)cc1=O,Active
4,Cn1c(N2CCO[C@@H](c3ccc(NC(=O)CN4CCCC4)cc3)C2)nc(-c2ccncc2F)cc1=O,Active
5,Cn1c(N2CCO[C@@H](c3ccc(NC4CCc5ccccc54)cc3)C2)nc(-c2ccncc2F)cc1=O (stereo partly drawn),Active
6,CCN(CC)C(=O)Nc1ccc([C@H]2CN(c3nc(-c4ccncc4F)cc(=O)n3C)CCO2)cc1,Active
7,CCN(CC)CCOc1ccc([C@H]2CN(c3nc(-c4ccncc4F)cc(=O)n3C)CCO2)cc1,Active
8,Cn1c(N2CCO[C@@H](c3c(F)cccc3Cl)C2)nc(-c2ccncc2F)c(F)c1=O,Active
9,CCN(CC)c1ccc([C@H]2CN(c3nc(-c4ccncc4F)cc(=O)n3C)CCO2)c(OC)c1,Active
10,Cn1c(N2CCO[C@@H](c3ccc(-c4nnco4)cc3)C2)nc(-c2ccncc2F)cc1=O,Active
11,Cn1c(N2CCO[C@@H](c3ccc(N4CC[C@@H](N5CCCC5)C4)cc3)C2)nc(-c2ccncc2F)cc1=O,Active
12,Cn1c(N2CCO[C@@H](c3ccc(NC(=O)OCc4ccccc4)cc3)C2)nc(-c2ccncc2F)cc1=O,Active
13,Cn1c(N2CCO[C@@H](c3ccc(NC(=O)C(C)(C)O)cc3)C2)nc(-c2ccncc2F)cc1=O,Active
14,Cc1nc(-c2ccc([C@H]3CN(c4nc(-c5ccncc5F)cc(=O)n4C)CCO3)cc2)no1,Active
15,Cc1nnc(-c2ccc([C@H]3CN(c4nc(-c5ccncc5F)cc(=O)n4C)CCO3)cc2)o1,Active
16,CCN(CC)CCCOc1ccc([C@H]2CN(c3nc(-c4ccncc4F)cc(=O)n3C)CCO2)cc1,Active
17,Cn1c(N2CCO[C@@H](c3ccc(NC(=O)C4CCCC4)cc3)C2)nc(-c2ccncc2F)cc1=O,Active
18,Cn1c(N2CCO[C@@H](c3ccc(-c4ncon4)cc3)C2)nc(-c2ccncc2F)cc1=O,Active
19,Cn1c(N2CCN[C@@H](c3ccc(N4CC[C@@H](O)C4)cc3)C2)nc(-c2ccncc2F)cc1=O,Active
20,CN1CCN(CCCOc2ccc([C@H]3CN(c4nc(-c5ccncc5F)cc(=O)n4C)CCO3)cc2)CC1,Active
21,Cn1c(N2CCOC(c3cccc(-c4cncnc4)c3)C2)nc(-c2ccncc2F)cc1=O (racemic),Active

# Target: Glycogen synthase kinase-3 beta splice variant X1 (Bos taurus, UniProt A0A059UE90)
# Experiment: as §1
row,SMILES,IC50 [nM]
1,Cn1c(N2CCO[C@@H](c3ccc(OCCN4CCOCC4)cc3)C2)nc(-c2ccncc2F)cc1=O,1.1
2,CN(c1ccc([C@H]2CN(c3nc(-c4ccncc4F)cc(=O)n3C)CCO2)cc1)c1ccccn1,5.4
3,CN(C)CC(=O)Nc1ccc([C@H]2CN(c3nc(-c4ccncc4F)cc(=O)n3C)CCO2)cc1,0.27
4,Cn1c(N2CCO[C@@H](c3ccc(N[C@@H]4CCOC4)cc3)C2)nc(-c2ccncc2F)cc1=O,2.7
5,COC(=O)Nc1ccc([C@H]2CN(c3nc(-c4ccncc4F)cc(=O)n3C)CCO2)cc1,1.2
6,Cn1c(N2CCO[C@@H](c3ccc(N4CCC(N5CCCC5)CC4)cc3)C2)nc(-c2ccncc2F)cc1=O,1.7
7,Cn1c(N2CCO[C@@H](c3c(F)cccc3Cl)C2)nc(-c2ccncc2F)cc1=O,1.4
8,COc1ccc(NC(C)=O)cc1[C@H]1CN(c2nc(-c3ccncc3F)cc(=O)n2C)CCO1,0.48
9,Cn1c(N2CCN[C@@H](c3ccc(-c4ncon4)cc3)C2)nc(-c2ccncc2F)cc1=O,4.8
10,Cc1cc(C2CN(c3nc(-c4ccncc4F)cc(=O)n3C)CCO2)ccc1Br (stereo not drawn),0.51
11,Cn1c(N2CCO[C@@H](c3ccc(NC(=O)C(C)(C)C)cc3)C2)nc(-c2ccncc2F)cc1=O,4.2
12,Cn1c(N2CCO[C@@H](c3ccc(NC(=O)C4CCCCC4)cc3)C2)nc(-c2ccncc2F)cc1=O,2.2
13,CC(=O)Nc1cccc([C@H]2CN(c3nc(-c4ccncc4F)cc(=O)n3C)CCO2)c1,4.1
14,Cn1c(N2CCN[C@@H](c3ccc(N4CCN(c5ccccc5)CC4)cc3)C2)nc(-c2ccncc2F)cc1=O,0.53
15,CN(c1ccc([C@H]2CN(c3nc(-c4ccncc4F)cc(=O)n3C)CCO2)cc1)[C@@H]1CCOC1,3.9
16,Cn1c(N2CCO[C@@H](c3cc4ccccc4o3)C2)nc(-c2ccncc2F)cc1=O,7.9
17,CC(C)Oc1ccc(-c2ccc([C@H]3CN(c4nc(-c5ccncc5F)cc(=O)n4C)CCN3)cc2)cc1,1.2
18,Cc1nc(-c2ccc([C@H]3CN(c4nc(-c5ccncc5F)cc(=O)n4C)CCN3)cc2)no1,2.9
19,Cn1c(N2CCO[C@@H](c3ccc(C(=O)N4CCOCC4)cc3)C2)nc(-c2ccncc2F)cc1=O,7.4
20,CN(C)C(=O)Nc1ccc([C@H]2CN(c3nc(-c4ccncc4F)cc(=O)n3C)CCO2)cc1,11
21,Cn1c(N2CCOC(c3ccc4c(c3)CCC(=O)N4)C2)nc(-c2ccncc2F)cc1=O (racemic),1.2
22,Cn1c(N2CCO[C@@H](c3ccc(N)cc3)C2)nc(-c2ccncc2F)cc1=O,2.9
23,CC(=O)N1CCC(Oc2ccc([C@H]3CN(c4nc(-c5ccncc5F)cc(=O)n4C)CCO3)cc2)CC1,6.4
24,COc1ccc(-c2ccc([C@H]3CN(c4nc(-c5ccncc5F)cc(=O)n4C)CCN3)cc2)cc1,0.73
25,Cn1c(N2CCN[C@@H](c3ccc(N4CCCCC4)cc3)C2)nc(-c2ccncc2F)cc1=O,3.7

# From ChEMBL document CHEMBL3727346, “6-(pyridinyl)-4-pyrimidone derivates as tau protein kinase 1 inhibitors” (2011)
